The target of this assay is EZH2 (Homo sapiens (Human), UniProt Q15910). Briefly: E-cadherin promoter luciferase reporter gene primary screening in 293T cells. It counts as cell-based. Conditions: 293T cells treated for 24 hours, Dual-Glo luciferase; for 1 μM relative fluorescence intensity: compound 1 μM; for 10 μM relative fluorescence intensity: compound 10 μM; for 3 μM relative fluorescence intensity: compound 3 μM. The source says: EZH2 suppresses the expression of downstream E-cadherin, and upon EZH2 suppression, expression of E-cadherin will increase. Based on such principle, a reporter gene expression vector was constructed using luciferase.
The amplified fragments after PCR and the PGL4.1 vector (purchased from TAKARA, Japan) were respectively subjected to enzyme digestion with SacI and BglII (purchased from TAKARA, Japan), and then purified with PCR cleanup kit (Axygen PCR cleanup kit). Subsequently, the purified and enzyme-digested PCR products was ligated to the purified and enzyme-digested PGL4.1 vector using ligase solution I (DNA Ligation Kit Ver.2.1, purchased from TAKARA, Japan), and subjected to transformation. Single clones were then screened out and subjected to sequencing, and the obtained positive plasmid containing promoter fragments of Ecadherin was named E-cadherin RE-PGL4.1.
Meanwhile, a Renilla fluorescent vector was constructed using PCDNA4.1 (purchased from Thermofisher, USA) as the template to amplify the fragment of CMV promoter. After enzymatic digestion of the amplified CMV sequences and pGL4.70 vector (purchased from Promega, USA) with KpnI and XhoI (purchased from Promega, USA), purification was conducted with PCR cleanup kit (Axygen PCR cleanup kit). Then the enzyme-digested PCR product was ligated to the enzyme-digested PGL4.70 vector using ligase solution I (DNA Ligation Kit Ver.2.1, purchased from TAKARA, Japan) and the resultant was subjected to transformation. Subsequently single clones were screened and subjected to sequencing, and the obtained plasmid that contained CMV sequence was named as Plasmid Renilla luciferase-pGL4.70. Said plasmid utilized CMV promoter to achieve high expression of Renilla luciferase, which served as the control fluorescence for the primary screening system.
The cells were firstly added with 20 μL Dual-Glo® Luciferase Assay Reagent, then incubated under room temperature for 10 minutes, and read on microplate reader Spectramax i3 (Molecular Devices, USA) to obtain the data of primary screening, which is shown in Table 1.

18 compounds from patent publication US10647700B2, “EZH2 inhibitor and use thereof” (TARAPEUTICS SCIENCE INC., priority 2017, dated 2020) can be followed below.

EZH2, sequence (Q15910 whole entry, the tested form may be a part): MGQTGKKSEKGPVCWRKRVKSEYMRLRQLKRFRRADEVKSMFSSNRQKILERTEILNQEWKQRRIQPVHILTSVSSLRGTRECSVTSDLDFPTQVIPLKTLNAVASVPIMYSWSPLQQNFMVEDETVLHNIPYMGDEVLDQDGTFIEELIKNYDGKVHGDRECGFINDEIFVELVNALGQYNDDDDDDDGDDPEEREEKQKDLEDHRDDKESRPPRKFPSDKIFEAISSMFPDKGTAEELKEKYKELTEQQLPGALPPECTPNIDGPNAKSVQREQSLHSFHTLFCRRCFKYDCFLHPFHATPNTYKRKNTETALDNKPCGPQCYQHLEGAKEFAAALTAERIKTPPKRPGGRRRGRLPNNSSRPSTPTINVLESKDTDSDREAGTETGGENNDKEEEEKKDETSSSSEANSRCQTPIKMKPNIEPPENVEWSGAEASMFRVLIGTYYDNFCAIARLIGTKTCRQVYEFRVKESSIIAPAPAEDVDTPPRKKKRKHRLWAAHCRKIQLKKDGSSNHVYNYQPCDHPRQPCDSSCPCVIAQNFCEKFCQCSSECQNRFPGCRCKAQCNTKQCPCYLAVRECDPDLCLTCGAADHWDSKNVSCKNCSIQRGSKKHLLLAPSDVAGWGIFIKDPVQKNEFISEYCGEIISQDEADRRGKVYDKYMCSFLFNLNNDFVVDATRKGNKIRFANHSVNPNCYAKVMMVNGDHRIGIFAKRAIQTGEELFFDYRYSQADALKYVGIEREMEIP
EZH2, sequence (O75530 whole entry partner, the tested form may be a part): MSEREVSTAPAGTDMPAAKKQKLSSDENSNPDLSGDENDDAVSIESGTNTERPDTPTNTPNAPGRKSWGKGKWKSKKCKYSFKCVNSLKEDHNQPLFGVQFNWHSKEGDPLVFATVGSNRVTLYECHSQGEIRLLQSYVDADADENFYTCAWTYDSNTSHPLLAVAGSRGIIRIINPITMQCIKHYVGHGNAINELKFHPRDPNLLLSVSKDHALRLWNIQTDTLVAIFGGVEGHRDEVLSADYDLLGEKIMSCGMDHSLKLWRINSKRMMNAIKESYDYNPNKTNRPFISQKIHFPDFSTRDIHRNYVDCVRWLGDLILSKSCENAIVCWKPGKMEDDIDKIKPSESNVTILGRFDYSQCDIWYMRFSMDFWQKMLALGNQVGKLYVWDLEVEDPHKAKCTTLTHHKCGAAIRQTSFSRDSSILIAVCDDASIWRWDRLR
EZH2, sequence (Q15022 whole entry partner, the tested form may be a part): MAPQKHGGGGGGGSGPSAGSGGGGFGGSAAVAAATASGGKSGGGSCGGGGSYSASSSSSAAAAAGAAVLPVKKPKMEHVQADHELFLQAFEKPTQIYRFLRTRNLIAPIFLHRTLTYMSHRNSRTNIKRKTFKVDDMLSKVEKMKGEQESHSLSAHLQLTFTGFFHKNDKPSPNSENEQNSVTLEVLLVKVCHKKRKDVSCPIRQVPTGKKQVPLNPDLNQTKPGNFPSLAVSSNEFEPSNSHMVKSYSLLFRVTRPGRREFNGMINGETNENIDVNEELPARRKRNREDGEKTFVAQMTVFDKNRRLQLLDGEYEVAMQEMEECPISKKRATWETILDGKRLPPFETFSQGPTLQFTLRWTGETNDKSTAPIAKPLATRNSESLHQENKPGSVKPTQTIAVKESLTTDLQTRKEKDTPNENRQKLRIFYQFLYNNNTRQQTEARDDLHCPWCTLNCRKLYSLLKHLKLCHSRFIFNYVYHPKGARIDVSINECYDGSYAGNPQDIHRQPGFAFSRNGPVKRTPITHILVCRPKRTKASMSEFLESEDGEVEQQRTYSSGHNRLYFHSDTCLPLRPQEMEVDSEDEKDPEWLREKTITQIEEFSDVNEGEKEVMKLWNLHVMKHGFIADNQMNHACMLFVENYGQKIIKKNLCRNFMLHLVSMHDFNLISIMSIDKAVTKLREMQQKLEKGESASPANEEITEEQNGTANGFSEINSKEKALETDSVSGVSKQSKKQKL
EZH2, sequence (Q09028 whole entry partner, the tested form may be a part): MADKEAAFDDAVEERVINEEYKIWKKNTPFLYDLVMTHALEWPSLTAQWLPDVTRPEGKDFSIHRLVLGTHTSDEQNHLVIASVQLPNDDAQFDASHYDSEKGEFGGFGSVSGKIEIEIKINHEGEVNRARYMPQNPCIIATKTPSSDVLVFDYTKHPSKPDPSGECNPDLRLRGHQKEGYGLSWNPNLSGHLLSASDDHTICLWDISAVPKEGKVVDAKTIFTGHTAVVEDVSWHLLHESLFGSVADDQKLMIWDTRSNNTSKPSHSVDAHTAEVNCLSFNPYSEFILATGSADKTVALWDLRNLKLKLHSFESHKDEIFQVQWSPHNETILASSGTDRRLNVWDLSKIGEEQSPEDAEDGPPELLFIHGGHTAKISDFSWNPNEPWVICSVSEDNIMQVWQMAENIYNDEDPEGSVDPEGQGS

In the case of `CCN(C(=O)C1CCCC1)c1cc(-c2ccc(N3CCN(CC4CC4)CC3)nc2)cc(C(=O)NCc2c(C)cc(C)[nH]c2=O)c1C` [Compound 15, 5-(6-(4-(cyclopropylmethyl)piperazin-1-yl)pyridin-3-yl)-N-((4,6-dimethyl-2-oxo-1,2-dihydropyridin-3-yl)methyl)-3-(N-ethylcyclopentanecarboxamido)-2-methylbenzamide], the “1 μM relative fluorescence intensity” value was 262.61 and the “10 μM relative fluorescence intensity” value turned out to be 335.61.
Take `CCN(C(=O)C1CCCC1)c1cc(-c2ccnc(N3CCN(C)CC3)c2)cc(C(=O)NCc2c(C)cc(C)[nH]c2=O)c1C` [Compound 17, N-((4,6-dimethyl-2-oxo-1,2-dihydropyridin-3-yl)methyl)-3-(N-ethylcyclopentanecarboxamido)-2-methyl-5-(2-(4-methylpiperazin-1-yl)pyridin-4-yl)benzamide]: the “1 μM relative fluorescence intensity” value is recorded as 172, the “3 μM relative fluorescence intensity” value worked out at 223 and the “10 μM relative fluorescence intensity” value was 303.
The matching figures for `CCN(C(=O)C1CCCC1)c1cc(-c2ccc(N3CCN(C(C)C)CC3)nc2)cc(C(=O)NCc2c(C)cc(C)[nH]c2=O)c1C` [Compound 18, N-((4,6-dimethyl-2-oxo-1,2-dihydropyridin-3-yl)methyl)-3-(N-ethylcyclopentanecarboxamido)-5-(6-(4-isopropylpiperazin-1-yl)pyridin-3-yl)-2-methylbenzamide]: 289, 356 and 423.
Taken in the same sequence, the figures for `CCN(C(=O)C1CCCC1)c1cc(-c2ccc(C#N)c(F)c2)cc(C(=O)NCc2c(C)cc(C)[nH]c2=O)c1C` [Compound 19, 4′-cyano-N-((4,6-dimethyl-2-oxo-1,2-dihydropyridin-3-yl)methyl)-5-(N-ethylcyclopentanecarboxamido)-3′-fluoro-4-methyl-[1,1′-diphenyl]-3-carboxamide] were 189, 228 and 310.
On to `CCN(C(=O)C1CCCC1)c1cc(-c2ccc(C(=O)N3CCOCC3)cc2)cc(C(=O)NCc2c(C)cc(C)[nH]c2=O)c1C` [Compound 20, N-((4,6-dimethyl-2-oxo-1,2-dihydropyridin-3-yl)methyl)-5-(N-ethylcyclopentanecarboxamido)-4-methyl-4′-(morpholin-4-carbonyl)-[1,1′-diphenyl]-3-carboxamide], for which the “1 μM relative fluorescence intensity” value was found to be 193, the “3 μM relative fluorescence intensity” value was found to be 213 and the “10 μM relative fluorescence intensity” value stood at 227.
Taken in the same sequence, the figures for `CCN(C(=O)C1CCCC1)c1cc(-c2ccc(N3CCOCC3)cc2)cc(C(=O)NCc2c(C)cc(C)[nH]c2=O)c1C` [Compound 21, N-((4,6-dimethyl-2-oxo-1,2-dihydropyridin-3-yl)methyl)-5-(N-ethylcyclopentanecarboxamido)-4-methyl-4′-morpholinyl-[1,1′-diphenyl]-3-carboxamide] were 170, 225 and 339.
Taken in the same sequence, the figures for `CCN(C(=O)C1CCCC1)c1cc(-c2ccc(CC(=O)N3CCOCC3)cc2)cc(C(=O)NCc2c(C)cc(C)[nH]c2=O)c1C` [Compound 22, N-((4,6-dimethyl-2-oxo-1,2-dihydropyridin-3-yl)methyl)-5-(N-ethylcyclopentanecarboxamido)-4-methyl-4′-(2-morpholinyl-2-oxoethyl)-[1,1′-diphenyl]-3-carboxamide] were 171, 194 and 242.
`CCN1CCN(Cc2ccc(-c3cc(C(=O)NCc4c(C)cc(C)[nH]c4=O)c(C)c(N(CC)C(=O)C4CCCC4)c3)cc2)CC1` [Compound 23, N-((4,6-dimethyl-2-oxo-1,2-dihydropyridin-3-yl)methyl)-5-(N-ethylcyclopentanecarboxamido)-4′-((4-ethylpiperazin-1-yl)methyl)-4-methyl-[1,1′-diphenyl]-3-carboxamide]: the “1 μM relative fluorescence intensity” value turned out to be 290, the “3 μM relative fluorescence intensity” value is recorded as 346 and the “10 μM relative fluorescence intensity” value is given as 343.
As for `CCN1CCN(c2ccc(-c3cc(C(=O)NCc4c(C)cc(C)[nH]c4=O)c(C)c(N(CC)C(=O)C4CCCC4)c3)cc2)CC1` [Compound 27, N-((4,6-dimethyl-2-oxo-1,2-dihydropyridin-3-yl)methyl)-5-(N-ethylcyclopentanecarboxamido)-4′-(4-ethylpiperazin-1-yl)-4-methyl-[1,1′-diphenyl]-3-carboxamide], the “1 μM relative fluorescence intensity” value stood at 204.86 and the “10 μM relative fluorescence intensity” value came out at 335.96.
Regarding `CCN(C(=O)C1CCCC1)c1cc(-c2ccc(NS(=O)(=O)C3CC3)cc2)cc(C(=O)NCc2c(C)cc(C)[nH]c2=O)c1C` [Compound 28, 4′-(cyclopropanesulfonamide)-N-((4,6-dimethyl-2-oxo-1,2-dihydropyridin-3-yl)methyl)-5-(N-ethylcyclopentanecarboxamido)-4-methyl-[1,1′-diphenyl]-3-carboxamide], the “1 μM relative fluorescence intensity” value turned out to be 163.93 and the “10 μM relative fluorescence intensity” value came to 345.23.
Taken in the same sequence, the figures for `CCN(C(=O)C1CCCC1)c1cc(-c2ccc(OCCCN3CCOCC3)cc2)cc(C(=O)NCc2c(C)cc(C)[nH]c2=O)c1C` [Compound 30, N-((4,6-dimethyl-2-oxo-1,2-dihydropyridin-3-yl)methyl)-5-(N-ethylcyclopentanecarboxamido)-4-methyl-4′-(3-morpholinopropoxy)-[1,1′-diphenyl]-3-carboxamide] were 253.44 and 231.21.
`CCN(C(=O)C1CCCC1)c1cc(C(N)=O)cc(C(=O)NCc2c(C)cc(C)[nH]c2=O)c1C` [Compound 34, N^1-((4,6-dimethyl-2-oxo-1,2-dihydropyridin-3-yl)methyl)-5-(N-ethylcyclopentanecarboxamido)-6-methyl-isophthalamide]: the “1 μM relative fluorescence intensity” value is reported as 98.36 and the “10 μM relative fluorescence intensity” value amounted to 109.72.
Consider `CCN(C(=O)C1CCCC1)c1cc(-c2ccc(CN3CCNC[C@H]3CO)cc2)cc(C(=O)NCc2c(C)cc(C)[nH]c2=O)c1C` [Compound 35], for which the “1 μM relative fluorescence intensity” value is listed as 83.82 and the “10 μM relative fluorescence intensity” value stood at 123.19.
The matching figures for `CCN(C(=O)C1CCCC1)c1cc(-c2ccc(N3CCN(C)CC3)nc2)cc(C(=O)NCc2c(C)cc(C)[nH]c2=O)c1C` [Compound 36, N-((4,6-dimethyl-2-oxo-1,2-dihydropyridin-3-yl)methyl)-3-(N-ethylcyclopentanecarboxamido)-2-methyl-5-(6-(4-methylpiperazin-1-yl)pyridin-3-yl)benzamide]: 211.26 and 312.36.
Regarding `CCN(C(=O)C1CCCC1)c1cc(-c2ccc(N3CCC(N)CC3)nc2)cc(C(=O)NCc2c(C)cc(C)[nH]c2=O)c1C` [Compound 37, 5-(6-(4-aminopiperidin-1-yl)pyridin-3-yl)-N-((4,6-dimethyl-2-oxo-1,2-dihydropyridin-3-yl)methyl)-3-(N-ethylcyclopentanecarboxamido)-2-methylbenzamide], the “1 μM relative fluorescence intensity” value worked out at 163.93 and the “10 μM relative fluorescence intensity” value was 345.23.
The matching figures for `CCN(C(=O)C1CCCC1)c1cc(-c2ccc(Oc3ccccc3)cc2)cc(C(=O)NCc2c(C)cc(C)[nH]c2=O)c1C` [Compound 41, N-((4,6-dimethyl-2-oxo-1,2-dihydropyridin-3-yl)methyl)-5-(N-ethylcyclopentanecarboxamido)-4-methyl-4′-phenoxy-[1,1′-diphenyl]-3-carboxamide]: 156.04 and 183.38.
Taken in the same sequence, the figures for `CCN(C(=O)C1CCCC1)c1cc(-c2ccc(OCCCN3CCOCC3)c(F)c2)cc(C(=O)NCc2c(C)cc(C)[nH]c2=O)c1C` [Compound 42, N-((4,6-dimethyl-2-oxo-1,2-dihydropyridin-3-yl)methyl)-5-(N-ethylcyclopentanecarboxamido)-3′-fluoro-4-methyl-4′-(3-morpholinopropoxy)-[1,1′-diphenyl]-3-carboxamide] were 179.84 and 234.50.
Taken in the same sequence, the figures for `CCN(C(=O)C1CCCC1)c1cc(-c2ccc(C(C)=O)s2)cc(C(=O)NCc2c(C)cc(C)[nH]c2=O)c1C` [Compound 43, 5-(5-acetylthiophene-2-yl)-N-((4,6-dimethyl-2-oxo-1,2-dihydropyridin-3-yl)methyl)-3-(N-ethylcyclopentanecarboxamido)-2-methylbenzamide] were 147.30 and 235.05.
